In US12433865B2, “Compositions comprising PGI2-receptor agonists and processes for the preparation thereof” (Arena Pharmaceuticals, Inc., priority 2018, dated 2025):

Assay: Release (dissolution) profile of tablets, USP Apparatus 1 (baskets)
Type: physicochemical
Details: for mean value (n = 6) of % of Compound 1 released: tablet, 25 mg Methocel K100 Premium LVCR
Source text: USP Apparatus 1 (BASKETS) is described, for example, in the United States Pharmacopeial Convention, Feb. 1, 2012, Chapter <711> (“Dissolution”), incorporated by reference herein in its entirety. See http://www.usp.org/sites/default/files/usp_pdf/EN/USPNF/revisions/m99470-gc_711.pdf. The USP Apparatus 1 (baskets) assembly consists of the following: a vessel, which may be covered, made of glass or other inert, transparent material; a motor; a metallic drive shaft; and a cylindrical basket. The materials should not sorb, react, or interfere with the specimen being tested. The vessel is partially immersed in a suitable water bath of any convenient size or heated by a suitable device such as a heating jacket. The water bath or heating device permits holding the temperature inside the vessel at 37±0.5° during the test and keeping the bath fluid in constant, smooth motion. No part of the assembly, including the environment in which the assembly is placed, contributes significant motion, agitation, or vibration beyond that due to the smoothly rotating stirring element. An apparatus that permits observation of the specimen and stirring element during the test is preferable. The vessel is cylindrical, with a hemispherical bottom and with one of the following dimensions and capacities: for a nominal capacity of 1 L, the height is 160 mm to 210 mm and its inside diameter is 98 mm to 106 mm; for a nominal capacity of 2 L, the height is 280 mm to 300 mm and its inside diameter is 98 mm to 106 mm; and for a nominal capacity of 4 L, the height is 280 mm to 300 mm and its inside diameter is 145 mm to 155 mm. Its sides are flanged at the top. A fitted cover may be used to retard evaporation. If a cover is used, it provides sufficient openings to allow ready insertion of the thermometer and withdrawal of specimens. The shaft is positioned so that its axis is not more than 2 mm at any point from the vertical axis of the vessel and rotates smoothly and without significant wobble that could affect the results. The vertical center line of the blade passes through the axis of the shaft so that the bottom of the blade is flush with the bottom of the shaft. A distance of 25 f 2 mm between the bottom of the blade and the inside bottom of the vessel is maintained during the test. The metallic or suitably inert, rigid blade and shaft comprise a single entity. A suitable two-part detachable design may be used provided the assembly remains firmly engaged during the test.
A speed-regulating device is used that allows the shaft rotation speed to be selected and maintained at the specified rate within +4%. Shaft and basket components of the stirring element are fabricated of stainless steel, type 316, or other inert material. A basket having a gold coating of about 0.0001 inch (2.5 μm) thick may be used. A dosage unit is placed in a dry basket at the beginning of each test. The distance between the inside bottom of the vessel and the bottom of the basket is maintained at 25±2 mm during the test.
The release profiles for modified-release tablets were measured using USP Apparatus 1 (baskets).
All release profiles disclosed in Tables 6a-6d were measured with USP Apparatus 1 (baskets) at 100 rpm in 500 mL of aqueous sodium phosphate at a concentration of 0.05 M (pH=6.8). The values in a given table relate to tablets obtained from the same batch. Values shown represent mean values over a number of dissolution tests (“n” in each table) in each case.

release rate of tablets relative to modified-release capsule (0.5 mg tablet with 40% HPMC K4M CR): faster | mean value (n = 6) of % of Compound 1 released (Table 6a: initial release profile, 0.05 mg Compound 1, 25 mg Methocel K4M Premium CR, 60 min): 6.9% | mean value (n = 6) of % of Compound 1 released (Table 6a: initial release profile, 0.05 mg Compound 1, 25 mg Methocel K4M Premium CR, 120 min): 25.3% | mean value (n = 6) of % of Compound 1 released (Table 6a: initial release profile, 0.05 mg Compound 1, 25 mg Methocel K4M Premium CR, 180 min): 35.8% | mean value (n = 6) of % of Compound 1 released (Table 6a: initial release profile, 0.05 mg Compound 1, 25 mg Methocel K4M Premium CR, 240 min): 45.1% | mean value (n = 6) of % of Compound 1 released (Table 6a: initial release profile, 0.05 mg Compound 1, 25 mg Methocel K4M Premium CR, 360 min): 62% | mean value (n = 6) of % of Compound 1 released (Table 6a: initial release profile, 0.05 mg Compound 1, 25 mg Methocel K4M Premium CR, 480 min): 74.8% | mean value (n = 6) of % of Compound 1 released (Table 6a: initial release profile, 0.05 mg Compound 1, 25 mg Methocel K4M Premium CR, 600 min): 86.6% | mean value (n = 6) of % of Compound 1 released (Table 6a: initial release profile, 0.05 mg Compound 1, 25 mg Methocel K4M Premium CR, 840 min): 100.4% | mean value (n = 6) of % of Compound 1 released (Table 6b: initial release profile, 0.5 mg Compound 1, 25 mg Methocel K4M Premium CR, 60 min): 17.9% | mean value (n = 6) of % of Compound 1 released (Table 6b: initial release profile, 0.5 mg Compound 1, 25 mg Methocel K4M Premium CR, 120 min): 27.3% | mean value (n = 6) of % of Compound 1 released (Table 6b: initial release profile, 0.5 mg Compound 1, 25 mg Methocel K4M Premium CR, 180 min): 36.9% | mean value (n = 6) of % of Compound 1 released (Table 6b: initial release profile, 0.5 mg Compound 1, 25 mg Methocel K4M Premium CR, 240 min): 45.5% | mean value (n = 6) of % of Compound 1 released (Table 6b: initial release profile, 0.5 mg Compound 1, 25 mg Methocel K4M Premium CR, 360 min): 61.1% | mean value (n = 6) of % of Compound 1 released (Table 6b: initial release profile, 0.5 mg Compound 1, 25 mg Methocel K4M Premium CR, 480 min): 74.2% | mean value (n = 6) of % of Compound 1 released (Table 6b: initial release profile, 0.5 mg Compound 1, 25 mg Methocel K4M Premium CR, 600 min): 84.8% | mean value (n = 6) of % of Compound 1 released (Table 6b: initial release profile, 0.5 mg Compound 1, 25 mg Methocel K4M Premium CR, 840 min): 98.1% | mean value (n = 6) of % of Compound 1 released (Table 6c: after storage at 40° C. and 75% RH for 6 months, 0.05 mg Compound 1, 25 mg Methocel K4M Premium CR, 60 min): 17% | mean value (n = 6) of % of Compound 1 released (Table 6c: after storage at 40° C. and 75% RH for 6 months, 0.05 mg Compound 1, 25 mg Methocel K4M Premium CR, 120 min): 27.1% | mean value (n = 6) of % of Compound 1 released (Table 6c: after storage at 40° C. and 75% RH for 6 months, 0.05 mg Compound 1, 25 mg Methocel K4M Premium CR, 180 min): 36.9% | mean value (n = 6) of % of Compound 1 released (Table 6c: after storage at 40° C. and 75% RH for 6 months, 0.05 mg Compound 1, 25 mg Methocel K4M Premium CR, 240 min): 45.4% | mean value (n = 6) of % of Compound 1 released (Table 6c: after storage at 40° C. and 75% RH for 6 months, 0.05 mg Compound 1, 25 mg Methocel K4M Premium CR, 360 min): 61.1% | mean value (n = 6) of % of Compound 1 released (Table 6c: after storage at 40° C. and 75% RH for 6 months, 0.05 mg Compound 1, 25 mg Methocel K4M Premium CR, 480 min): 75.8% | mean value (n = 6) of % of Compound 1 released (Table 6c: after storage at 40° C. and 75% RH for 6 months, 0.05 mg Compound 1, 25 mg Methocel K4M Premium CR, 600 min): 86.9% | mean value (n = 6) of % of Compound 1 released (Table 6c: after storage at 40° C. and 75% RH for 6 months, 0.05 mg Compound 1, 25 mg Methocel K4M Premium CR, 840 min): 100% | mean value (n = 6) of % of Compound 1 released (Table 6d: after storage at 40° C. and 75% RH for 6 months, 0.5 mg Compound 1, 25 mg Methocel K4M Premium CR, 60 min): 6.8% | mean value (n = 6) of % of Compound 1 released (Table 6d: after storage at 40° C. and 75% RH for 6 months, 0.5 mg Compound 1, 25 mg Methocel K4M Premium CR, 120 min): 24.3% | mean value (n = 6) of % of Compound 1 released (Table 6d: after storage at 40° C. and 75% RH for 6 months, 0.5 mg Compound 1, 25 mg Methocel K4M Premium CR, 180 min): 33% | mean value (n = 6) of % of Compound 1 released (Table 6d: after storage at 40° C. and 75% RH for 6 months, 0.5 mg Compound 1, 25 mg Methocel K4M Premium CR, 240 min): 41.3% | mean value (n = 6) of % of Compound 1 released (Table 6d: after storage at 40° C. and 75% RH for 6 months, 0.5 mg Compound 1, 25 mg Methocel K4M Premium CR, 360 min): 55.5% | mean value (n = 6) of % of Compound 1 released (Table 6d: after storage at 40° C. and 75% RH for 6 months, 0.5 mg Compound 1, 25 mg Methocel K4M Premium CR, 480 min): 67.9% | mean value (n = 6) of % of Compound 1 released (Table 6d: after storage at 40° C. and 75% RH for 6 months, 0.5 mg Compound 1, 25 mg Methocel K4M Premium CR, 600 min): 79.4% | mean value (n = 6) of % of Compound 1 released (Table 6d: after storage at 40° C. and 75% RH for 6 months, 0.5 mg Compound 1, 25 mg Methocel K4M Premium CR, 840 min): 94.7% | change of release profile following storage over time (modified-release tablets (FIGS. 12-14), storage at 40° C. and 75% RH for six months): did not change significantly | release rate of tablets relative to modified-release capsule (tablet with 30% HPMC K4M and 20% HPMC K100 LVCR): slightly faster | release rate of tablets relative to modified-release capsule (tablet with 40% HPMC K4M and 10% HPMC K100 LVCR, time points <6 hrs): faster | release rate of tablets relative to modified-release capsule (tablet with 40% HPMC K4M and 10% HPMC K100 LVCR, time points ≥6 hrs): slower | difference of percentage by weight of compound released, initial vs after storage (tablets 0.05 mg and 0.5 mg (FIGS. 12 and 13), storage at 40° C. and 75% RH for six months, any time point equal to or greater than 2 hours): ≤ 10%
SMILES: O=C(O)COC[C@H]1CC[C@H](COC(=O)N(c2ccccc2)c2ccc(Cl)cc2)CC1 [Compound 1, 2-(((1r,4r)-4-(((4-chlorophenyl)(phenyl)carbamoyloxy)methyl)cyclohexyl)methoxy)acetic acid]
